Reference: US6750348B1, “Chemokine receptor binding heterocyclic compounds” (AnorMED, Inc., priority 1999, dated 2004)

Experiments:
Assay type in all cases: cell-based
[1] = system: RANTES induced Ca flux in U87.CCR5 cells; test: Inhibition of RANTES induced Ca flux in U87.CCR5 cells (FLIPR); conditions: U-87-CCR5, at 20 μg/mL, read-out: inhibited RANTES induced Ca flux
Experimental: Loading dye: Fluo-3, AM (Molecular Probes F-1241) is dissolved in anhydrous DMSO and stored frozen in aliquots. To increase the solubility of the dye in the loading medium, 10% (w/v) pluronic acid (Molecular Probes F-127) is added to the Fluo-3 stock solution immediately before use.
HBSS+20 mM Hepes buffer+0.2% BSA, pH 7.4. HBSS 10× [(w/o phenol red and sodium bicarbonate (Gibco 14 065-049)]; Hepes buffer 1M (Gibco 15 630-056), BSA (Sigma A3675). The flux buffer is vacuum-filtered and stored refrigerated for a maximum of 5 days. Before use in the experiment, the buffer is warmed at 37° C. in a waterbath.
The test compounds were diluted in flux buffer and added to 4 wells of a black microplate (4 parallel measurements per compound).
The chemokines are diluted in flux buffer to concentrations that are 4-fold higher than the desired concentrations required for stimulation of the cells (i.e. 2.5 nM for SDF-1α and 0.6 nM for RANTES). The chemokines were added to untreated 96-well Sero well compound plates (International Medical, Sterilin code 611F96). In the negative control well's (baseline monitoring), flux buffer is added instead of chemokine. As a positive control to check for dye loading efficiency, 20 μM digitonin (final concentration) was also included. The agonist plate was incubated in the FLIPR (37° C.) for 15-30 min.
The FLIPR settings (camera exposure time and laser power) are adjusted to obtain initial fluorescence values between 8,000 and 10,000 units. After monitoring a 20 second-baseline, the agonist (chemokine) (50 μL) is added by automatic pipettor with black pipette tips. Fluorescence is measured simultaneously in all wells of the microplate every 2 seconds (first 2 min) and thereafter every 6 seconds (additional 2 min). The average ca-flux measured in each set of 4 identical wells (one test compound) was calculated by the FLIPR software.
U87.CCR5 cells were seeded into the black microplates (Costar 3603) on the day before the experiment. The culture medium was removed from the cells and 100 μL of loading medium (DMEM+10% FBS+4 μM Fluo-3, AM) was added to each well and the plate was incubate at 37° C. for 45 min. The loading medium was then removed an the cells were washed twice with flux buffer using the CELL WASH microplate washer (Labsystems) followed by incubation in flux buffer for 10 min. at room temperature (the washing procedure was repeated twice). Finally, the wash buffer was removed from the microplate wells and 150 μL of the test compound, diluted in flux buffer to the desired concentration. The microplate was then incubated in the FLIPR drawer for 10 min. prior to testing. Measurements were performed as described above.
The compounds of the current invention were tested for inhibition of RANTES induced Ca flux in U87.CCR5 cells.

HIV-1 NL4.3 or IIIB = test: Inhibition of HIV-1 (NL4.3 or IIIB) replication in MT-4 cells (MTT); conditions: Human immunodeficiency virus 1, IIIB, MT4, read-out: EC50, inhibition of HIV-1 NL4.3 or IIIB replication
How it was run: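 CXCR4-tropic virus infected MT-4 cells at MOI 0.01 (100× CCID50) across a range of compound concentrations, with cytotoxicity run in parallel. Viable cells counted by MTT after 5 days. EC50 is the concentration protecting 50% of infected cells from viral cytopathicity.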

HIV-1 BaL (CCR5 using) = test: Inhibition of HIV-1 (BaL) replication in PHA-stimulated PBMC's (MTT); conditions: Human immunodeficiency virus 1, BAL, MTT assay
Experimental: Compounds were tested for their ability to inhibit HIV-1 replication in MT-4 cells or PBMC's (peripheral blood mononucleocytes) using published procedures (for example, see: Labrosse et al. J. Virol. 1998, 6381-6388; Simmons et al. J. Virol. 1998, 8453-8457; Donzella et al. Nature Medicine 1998, 72-77; Schols et al. J. Exp. Med. 1997, 1383-1388; De Clercq et al. Antiviral Res. 1997, 147-156; and Bridger et al. U.S. patent application Ser. No. 09/111,895). In addition to the above references, experimental methods for performing anti-viral assays can also be found in: Bridger et al. J. Med. Chem. 1995, 38, 366-378; Bridger et al. J. Med. Chem. 1996, 39, 109-119; Bridger et al. U.S. Pat. No. 5,698,546; Bridger et al. U.S. Pat. No. 5,583,131; Bridger et al. U.S. Pat. No. 5,817,807; De Clercq et al. Antimicrob. Agents and Chemother. 1994, 38, 668-674.
The HIV-1 strain BaL is M-tropic (macrophage tropic) strain that exclusively uses CCR5 as a co-receptor for entry into cells. PBMC's (from healthy donors) express all chemokine receptors including CXCR4 and CCR5.

[2] = system: SDF-1α induced Ca flux in SUP-T1 cells; test: Inhibition of SDF-1α induced Ca flux in SUP-T1 cells (FLIPR); conditions: Homo sapiens, at 20 μg/mL, read-out: inhibited SDF-1α induced Ca flux

N[C@@H]1CCC[C@H]1N(Cc1ccc(CNCc2ccccn2)cc1)C1CCCc2cccnc21 (relative stereo) [Example 71, N-(2-pyridinylmethyl)-N′-(trans-2-aminocyclopentyl)-N′-(5,6,7,8-tetrahydro-8-quinolinyl)-1,4-benzenedimethanamine]
inhibition at 20 µg/mL [1]: > 20% | EC50 (HIV-1 NL4.3 or IIIB): < 20 µg/mL | EC50 (HIV-1 BaL (CCR5 using)): < 20 µg/mL

c1ccc(CNCc2ccc(CNc3cccc4ccccc34)cc2)nc1 [Example 5, N-(2-pyridinylmethyl)-N′-(1-naphthalenyl)-1,4-benzenedimethanamine]
inhibition at 20 µg/mL [1]: > 20% | EC50 (HIV-1 BaL (CCR5 using)): < 20 µg/mL

c1ccc(-c2ccc3c(n2)C(NCc2ccc(CNCc4ccccn4)cc2)CCC3)cc1 (centres unmarked) [Example 11, N-(2-pyridinylmethyl)-N′-(2-phenyl-5,6,7,8-tetrahydro-8-quinolinyl)-1,4-benzenedimethanamine]
inhibition at 20 µg/mL [1]: > 20% | EC50 (HIV-1 NL4.3 or IIIB): < 20 µg/mL | EC50 (HIV-1 BaL (CCR5 using)): < 20 µg/mL

c1ccc(-c2ccc3c(n2)C(N(Cc2ccc(CNCc4ccccn4)cc2)Cc2ccccn2)CCC3)cc1 (centres unmarked) [Example 12, N,N′-bis(2-pyridinylmethyl)-N′-(2-phenyl-5,6,7,8-tetrahydro-8-quinolinyl)-1,4-benzenedimethanamine]
inhibition at 20 µg/mL [2]: > 20% | EC50 (HIV-1 NL4.3 or IIIB): < 20 µg/mL | EC50 (HIV-1 BaL (CCR5 using)): < 20 µg/mL

c1ccc(CNCc2ccc(CN(Cc3c[nH]cn3)C3CCCc4cccnc43)cc2)nc1 (centres unmarked) [Example 17, N-(2-pyridinylmethyl)-N′-(1H-imidazol-4-ylmethyl)-N′-(5,6,7,8-tetrahydro-8-quinolinyl)-1,4-benzenedimethanamine]
inhibition at 20 µg/mL [2]: > 20% | EC50 (HIV-1 NL4.3 or IIIB): < 20 µg/mL | EC50 (HIV-1 BaL (CCR5 using)): < 20 µg/mL

c1ccc(CNCc2ccc(CN(Cc3ccco3)C3CCCc4cccnc43)cc2)nc1 (centres unmarked) [Example 29, N-(2-pyridinylmethyl)-N′-[2-furanylmethyl]-N′-(5,6,7,8-tetrahydro-8-quinolinyl)-1,4-benzenedimethanamine]
inhibition at 20 µg/mL [2]: > 20% | EC50 (HIV-1 NL4.3 or IIIB): < 20 µg/mL | EC50 (HIV-1 BaL (CCR5 using)): < 20 µg/mL

c1ccc(CNCCN(Cc2ccc(CNCc3ccccn3)cc2)C2CCCc3cccnc32)cc1 (centres unmarked) [Example 30, N-(2-pyridinylmethyl)-N′-[2-[(phenylmethyl)amino]ethyl]-N′-(5,6,7,8-tetrahydro-8-quinolinyl)-1,4-benzenedimethanamine]
inhibition at 20 µg/mL [1]: > 20% | inhibition at 20 µg/mL [2]: > 20% | EC50 (HIV-1 NL4.3 or IIIB): < 20 µg/mL | EC50 (HIV-1 BaL (CCR5 using)): < 20 µg/mL

CC1c2ccccc2CCC1NCc1ccc(CNCc2ccccn2)cc1 (centres unmarked) [Example 37, N-(2-pyridinylmethyl)-N′-(1-methyl-1,2,3,4-tetrahydro-2-naphthalenyl)-1,4-benzenedimethanamine]
inhibition at 20 µg/mL [2]: > 20% | EC50 (HIV-1 NL4.3 or IIIB): < 20 µg/mL | EC50 (HIV-1 BaL (CCR5 using)): < 20 µg/mL

Fc1cccc2c1CC(NCc1ccc(CNCc3ccccn3)cc1)CC2 (centres unmarked) [Example 43, N-(2-pyridinylmethyl)-N′-(8-Fluoro-1,2,3,4-tetrahydro2-naphthalenyl)-1,4-benzenedimethanamine]
inhibition at 20 µg/mL [2]: > 20% | EC50 (HIV-1 NL4.3 or IIIB): < 20 µg/mL | EC50 (HIV-1 BaL (CCR5 using)): < 20 µg/mL

c1ccc(CCN(Cc2ccc(CNCc3ccccn3)cc2)C2CCCc3cccnc32)nc1 (centres unmarked) [Example 66, N-(2-pyridinylmethyl)-N′-[2-(2-pyridinyl)ethyl]-N′-(5,6,7,8-tetrahydro-8-quinolinyl)-1,4-benzenedimethanamine]
inhibition at 20 µg/mL [2]: > 20% | EC50 (HIV-1 NL4.3 or IIIB): < 20 µg/mL | EC50 (HIV-1 BaL (CCR5 using)): < 20 µg/mL

c1ccc(CNCc2ccc(CN(Cc3ccccn3)CC3CCCc4cccnc43)cc2)nc1 (centres unmarked) [Example 88, N,N′-bis(2-pyridinylmethyl)-N′-[(5,6,7,8-tetrahydro-8-quinolinyl)methyl]-1,4-benzenedimethanamine]
inhibition at 20 µg/mL [2]: > 20% | EC50 (HIV-1 NL4.3 or IIIB): < 20 µg/mL | EC50 (HIV-1 BaL (CCR5 using)): < 20 µg/mL

COc1ccc(CCN(Cc2ccc(CNC3CCCc4cccnc43)cc2)Cc2ccccn2)cc1 (centres unmarked) [Example 91, N-(2-pyridinylmethyl)-N-[2-(4-methoxyphenyl)ethyl]-N′-(5,6,7,8-tetrahydro-8-quinolinyl)-1,4-benzenedimethanamine]
EC50 (HIV-1 NL4.3 or IIIB): < 20 µg/mL | EC50 (HIV-1 BaL (CCR5 using)): < 20 µg/mL
